Laboratory results from patent publication US9623021B2, “Nuclear receptor binding agents” (GTX, Inc., priority 2007, dated 2017).

Experiments:
[1] = target: ERα ligand binding domain (Homo sapiens (Human), UniProt P03372); test: Competitive [3H]-estradiol radioligand binding, ERα (Example 21)
Description: (§1) ER binding affinity was determined via one of the following methods:
(§2) Briefly, the incubation mixture was filtered through a high affinity protein binding filter, and washed several times to remove any unbound radioactivity. The filter plate was air dried and sealed on the bottom.
(§3) Following incubation, plates were harvested onto GF/B filters and radioactivity was measured with a TopCount NXT (PerkinElmer). Nonspecific binding was subtracted from total binding to yield specific binding.

[2] = target: ERβ ligand binding domain (Homo sapiens (Human), UniProt Q92731); test: Competitive [3H]-estradiol radioligand binding, ERβ (Example 21); conditions: ratio between the binding constants of ER-α and ER-β
ERβ ligand binding domain, sequence (Q92731 264-498, species assumed): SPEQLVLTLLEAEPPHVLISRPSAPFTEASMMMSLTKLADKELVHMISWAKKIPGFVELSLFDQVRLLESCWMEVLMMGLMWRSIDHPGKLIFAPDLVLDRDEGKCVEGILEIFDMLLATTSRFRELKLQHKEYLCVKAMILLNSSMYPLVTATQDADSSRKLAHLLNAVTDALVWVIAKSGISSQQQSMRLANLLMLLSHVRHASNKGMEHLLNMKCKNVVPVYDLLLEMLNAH
Description: as §1, §2, §3

ER-α = ER-α (Rattus norvegicus (Rat), UniProt P06211); format: cell-based; conditions: 100 nM NRBA compared to 1 nM estradiol
Description: COS or 293 cells were plated in DME without phenol red+10% cs FBS at 90,000 cells per well in 24 well plates, and were transfected with 0.25 μg of the vector “ERE-LUC”, where a firefly luciferase gene was driven by two estrogen responsive elements and 0.02 μg of the control CMV-LUC, Renilla where a luciferase gene was driven by a CMV promoter. […] All the receptors were cloned from rat tissue into the PCR3.1 vector backbone. Twenty four hours post transfection, cells were treated with compounds of this invention, estrogen, DHT, and other NRBAs or combinations thereof. Cells were harvested 48 hrs after transfection, and assayed for firefly and Renilla luciferase activity.

paw edema = test: Carrageenan-induced paw edema (acute inflammation model); format: in vivo; conditions: per-oral, 1 hr prior to Carrageenan challenge; measured 4 hours post-Carrageenan injection
Description: FIG. 14 depicts the effect of 12b on the edema volume which was induced by Carrageenan (i.e. Carrageenan-induce raw paw edema as an acute inflammation model).
To determine the anti-inflammatory effects of ER-β NRBAs in vivo, animal paws were injected with carrageenan, which elicits an acute local inflammatory response. Per-oral treatment of 12b.

[3] = test system: LNCaP prostate cancer cells; test: LNCaP prostate cancer cell proliferation (3H thymidine incorporation); format: cell-based; conditions: treated for 6 days, FIG. 21
Description: (§4) The effects of treatment of an ER-β selective NRBA of this invention on cancer cell proliferation was examined using LNCaP prostate cancer cells and C-26 colon cancer cells. LNCaP or C-26 cells were plated in growth medium in 24 well and 6 well plates, respectively. LNCaP cells were treated for 6 days and C-26 cells were treated for 3 days at the indicated concentration. ^3H thymidine incorporation was measured at the end of treatment as an indicator of cell proliferation.

C-26 colon cancer cells = test: C-26 colon cancer cell proliferation (3H thymidine incorporation); format: cell-based; conditions: treated for 3 days, FIG. 22
Description: as §4

[4] = test system: LNCaP cells and human prostate stromal cells xenograft; test: LNCaP-stromal cell xenograft tumor growth; format: in vivo, nude mice; conditions: 30 mg/kg/day for 21 days, by day 21
Description: Prostate tumor xenografts were established with LNCaP cells and human prostate stromal cells in nude mice to establish the in vivo anti-proliferative effects of these ER-β NRBAs. A 4:1 ratio (based on cell number) of LNCaP:stroma cells was injected subcutaneously in nude mice and allowed to grow until they attained 100 mm^3 in volume, as measured by calipers. […] Tumor volumes were measured twice a week and percent tumor volume calculated, after 10, 14 and 21 days.

uterus = test: Uterotropic assay; conditions: 10 mg/kg/day orally, 3 days
Description: Statistical differences among groups were evaluated by one-way ANOVA. Rats were treated for 3 consecutive days and then sacrificed 24 h after the last dose. The body of the uterus was cut just above its junction with the cervix and at the junction of the uterine horns with the ovaries. The uterus was weighed with and without intrauterine fluid. Statistical comparisons were made between the weights of empty uteri.

[5] = test system: Rat Aortic Smooth Muscle Cells (RASMC); test: RASMC cell proliferation assay (WST-1); conditions: 10 μM and 30 μM

ERα ligand binding domain, sequence (P03372 whole entry, looked up, species assumed, the tested form may be a part): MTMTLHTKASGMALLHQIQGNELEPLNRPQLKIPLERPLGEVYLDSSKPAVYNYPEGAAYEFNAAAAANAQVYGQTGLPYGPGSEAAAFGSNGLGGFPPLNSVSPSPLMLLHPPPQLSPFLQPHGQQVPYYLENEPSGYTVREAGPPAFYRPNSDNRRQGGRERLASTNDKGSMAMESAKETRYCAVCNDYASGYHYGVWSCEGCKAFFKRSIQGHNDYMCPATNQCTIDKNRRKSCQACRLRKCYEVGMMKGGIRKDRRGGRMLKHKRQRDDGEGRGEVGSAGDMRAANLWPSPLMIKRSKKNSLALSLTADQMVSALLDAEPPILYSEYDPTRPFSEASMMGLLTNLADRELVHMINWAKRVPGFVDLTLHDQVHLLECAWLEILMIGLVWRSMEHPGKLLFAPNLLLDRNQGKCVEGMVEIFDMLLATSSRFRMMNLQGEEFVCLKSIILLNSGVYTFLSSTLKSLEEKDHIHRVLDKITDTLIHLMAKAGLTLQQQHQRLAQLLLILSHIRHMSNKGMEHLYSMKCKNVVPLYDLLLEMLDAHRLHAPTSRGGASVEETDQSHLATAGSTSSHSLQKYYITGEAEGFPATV

SMILES: O=c1c2ccc(O)cc2c(Br)cn1-c1ccc(O)cc1 [Compound 12b, 4-bromo-6-hydroxy-2-(4-hydroxyphenyl)-isoquinolin-1(2H)-one]
- Ki [1]: 998 nM
- Ki Ratio (ER-α/ER-β) [2]: 20
- Estradiol activity at 100 nM, ER-α (ER-α): 31.2%
- reduction in paw edema (paw edema): 53%
- growth of LNCaP prostate cancer cells [3]: significantly inhibited the growth
- growth of C-26 colon cancer cells (C-26 colon cancer cells): significantly inhibited the growth
- tumor growth (percent tumor volume) [4]: inhibited the growth of tumor significantly

SMILES: CC/C(=C(\c1ccccc1)c1ccc(OCCN(C)C)cc1)c1ccccc1 [Tamoxifen, tamoxifen]
- uterine growth / uterine weight (uterus): stimulated the proliferation of uterus significantly
- cell numbers compared to day 0 [5]: toxicity
